This data set relates to rat. The settings on record: in vivo.

The source of these data is patent US20140190599A1 (priority 2004, published 2014).

`NN` [Hydrazine]: the LD50rat turned out to be 60 mg/kg.

`NNCCO.O=[N+]([O-])O` [HEHN, 2-hydroxyethyl hydrazinium nitrate]: the LD50rat is 325 mg/kg.
